Laboratory results published in US20260055161A1, “PSCA CAR-T CELLS” (Regeneron Pharmaceuticals, Inc., priority 2018, published 2026).

Experiments:
[1] = system: serum cytokines and chemokines (IP-10, TNF-α, MCP-1, MIP-1α, MIP-1β); experiment: peripheral cytokine profiles over time; format: in vivo, human
Description: Cohort 3 (1.25×10^6 cells/kg) was the initial starting cohort for cell dose escalation decisions in Part 1 when PSCA CAR-T cells are administered with rimiducid. Cohorts of 3 subjects were treated with escalating doses of PSCA CAR-T cells on Day 0 with a fixed, single dose of rimiducid (0.4 mg/kg) on Day 7. The doses of PSCA CAR-T cells are detailed in FIG. 8.

cells = experiment: AP1903 amount needed in vitro for effective signaling of cells; format: cell-based
[2] = healthy volunteers; cited from earlier work
peripheral lymphocytes = settings: 1 patient with increased IL-7 and IL-15 levels after lymphodepletion
Description: FIG. 8 provides a table showing patient demographics and clinical characteristics. *Cytoxan 1 g/m^2 by IV infusion on Day −3; † PSCA (copies per 10^6 copies hACTB) was measured at screening.

SMILES | serum cytokines (IP-10, TNF-α) ([1]; 8 patients that received rimiducid after CAR-T cells) | chemokine levels (MCP-1, MIP-1α, MIP-1β) ([1]; many patients, after rim infusion) | amount needed in vitro for effective signaling of cells (cells) [nM] | amount needed for effective signaling, equivalent (cells; MW: 1412 Da) [µg/L] | safety [2] | peripheral lymphocyte count, of the starting level (peripheral lymphocytes) [%]
CC[C@H](C(=O)N1CCCC[C@H]1C(=O)O[C@H](CCc1ccc(OC)c(OC)c1)c1cccc(OCC(=O)NCCNC(=O)COc2cccc([C@@H](CCc3ccc(OC)c(OC)c3)OC(=O)[C@@H]3CCCCN3C(=O)[C@@H](CC)c3cc(OC)c(OC)c(OC)c3)c2)c1)c1cc(OC)c(OC)c(OC)c1 (relative stereo) [rimiducid, 2-Piperidinecarboxylic acid, 1-[(2S)-1-oxo-2-(3,4,5-trimethoxyphenyl)butyl]-, 1,2-ethanediylbis[imino(2-oxo-2,1-ethanediyl)oxy-3,1-phenylene[(1R)-3-(3,4-dimethoxyphenyl)propylidene]]ester, [2S-[1(R*),2R*[S*[S*[1(R*),2R*]]]]]-(9C1)] | all had elevated cytokines (IP-10, TNF-α) correlated with cell expansion | Increased chemokine levels | 10 to 100 | 14 to 140 | safe | –
O=P1(N(CCCl)CCCl)NCCCO1 (stereo not drawn) [cyclophosphamide] | – | – | – | – | – | 31
